Our source for the IC50 values is BindingDB's records for doi:10.1002/cbic.200390029 (University of Queensland Brisbane, 2003).

In this assay the target is T1, Phospholipase A2, membrane associated (Homo sapiens, UniProt P14555).
T1 sequence (P14555 whole entry): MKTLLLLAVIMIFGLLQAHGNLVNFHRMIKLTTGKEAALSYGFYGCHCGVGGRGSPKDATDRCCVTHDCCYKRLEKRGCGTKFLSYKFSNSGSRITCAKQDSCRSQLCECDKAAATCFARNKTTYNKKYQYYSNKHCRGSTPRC
The assay can be described thus: In Vitro Colorimetric Enzyme Assay.

A word on the IC50: it is the midpoint of a concentration-inhibition curve. Read a high IC50 as lower potency. Take `O=C(O)CC[C@@H](Cc1ccc(OCc2cccc3ccccc23)cc1)NC(=O)CCCCCCc1ccccc1` [hnpsPLA2-IIa Inhibitor, 2l]: inhibition was half-maximal at 19 nM (IC50). Consider `O=C(O)CC[C@@H](Cc1ccc(Oc2ccccn2)cc1)NC(=O)CCCCCCc1ccccc1` [hnpsPLA2-IIa Inhibitor, 2h], for which it took 214 nM to reach half-maximal inhibition (IC50). As to `O=C(O)CC[C@@H](Cc1ccc(OCc2ccccc2)cc1)NC(=O)CCCCCCc1cccc([N+](=O)[O-])c1` [hnpsPLA2-IIa Inhibitor, 2g], the IC50 is 536 nM. Consider `CCCCCCCOc1ccc(C[C@H](CCC(=O)O)NC(=O)CCCCCCc2ccccc2)cc1` [hnpsPLA2-IIa Inhibitor, 2p], for which half-maximal inhibition (IC50) was put at 86 nM. In the case of `O=C(O)CC[C@@H](Cc1ccc(OCC2CCCCC2)cc1)NC(=O)CCCCCCc1ccccc1` [hnpsPLA2-IIa Inhibitor, 2j], the IC50 was 67 nM. Next, `O=C(O)CC[C@@H](Cc1ccc(OCc2ccccc2)cc1)NC(=O)CCCCCc1ccccc1` [hnpsPLA2-IIa Inhibitor, 2a]: 662 nM. `CC(=O)Nc1ccccc1CCCCCCC(=O)N[C@@H](CCC(=O)O)Cc1ccc(OCc2ccccc2)cc1` [hnpsPLA2-IIa Inhibitor, 2e] yielded an IC50 of 4050 nM. In the case of `CC(C)COc1ccc(C[C@H](CCC(=O)O)NC(=O)CCCCCCc2ccccc2)cc1` [hnpsPLA2-IIa Inhibitor, 2o], it took 170 nM to reach half-maximal inhibition (IC50).

As for `O=C(O)CC[C@@H](Cc1ccc(OCc2ccccc2)cc1)NC(=O)CCCCCCc1cccnc1` [hnpsPLA2-IIa Inhibitor, 2f], the IC50 was 761 nM. Take `O=C(O)CC[C@@H](Cc1ccc(OC/C=C/c2ccccc2)cc1)NC(=O)CCCCCCc1ccccc1` [hnpsPLA2-IIa Inhibitor, 2n]: the IC50 is 116 nM. For the compound `O=C(O)CC[C@@H](Cc1ccc(OCC2CCCC2)cc1)NC(=O)CCCCCCc1ccccc1` [hnpsPLA2-IIa Inhibitor, 2k], the midpoint of inhibition, the IC50, lay at 57 nM. In turn, `COc1ccccc1CCCCCCC(=O)N[C@@H](CCC(=O)O)Cc1ccc(OCc2ccccc2)cc1` [hnpsPLA2-IIa Inhibitor, 2d] displayed an IC50 of 1820 nM. The value for `O=C(O)CC[C@@H](Cc1ccc(OCc2ccccc2)cc1)NC(=O)CCCCCCCc1ccccc1` [hnpsPLA2-IIa Inhibitor, 2c] was 2480 nM. The value for `O=C(O)CC[C@@H](Cc1ccc(O)cc1)NC(=O)CCCCCCc1ccccc1` [hnpsPLA2-IIa Inhibitor, 2q] was 2570 nM; that for `O=C(O)CC[C@@H](Cc1ccc(Oc2cccnc2)cc1)NC(=O)CCCCCCc1ccccc1` [hnpsPLA2-IIa Inhibitor, 2i] was 247 nM. Next, `O=C(O)CC[C@@H](Cc1ccc(OCc2ccc3ccccc3c2)cc1)NC(=O)CCCCCCc1ccccc1` [hnpsPLA2-IIa Inhibitor, 2m]: 39 nM.
